{"source": "paper doi:10.1101/2025.10.16.682360v1", "about": "“Live-Cell Chemoproteomic Profiling Identifies the Uncharacterised Protein YbaA as a Direct Target of Ciprofloxacin in Escherichia coli” (biorxiv, 2025)", "key": {"YjdN": {"target": "T1, YjdN (Escherichia coli, UniProt P16681)", "T1 construct": "C-terminal His10 tag; purified by IMAC and size exclusion chromatography", "T1 sequence (P16681 1-147)": "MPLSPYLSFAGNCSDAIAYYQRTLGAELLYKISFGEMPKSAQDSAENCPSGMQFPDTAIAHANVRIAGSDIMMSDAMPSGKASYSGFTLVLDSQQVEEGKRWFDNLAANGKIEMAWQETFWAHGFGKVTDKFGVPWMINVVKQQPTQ", "assay": "surface plasmon resonance", "assay_type": "binding", "excerpt": "surface plasmon resonance on YjdN | Direct binding of CFX to YjdN or YbaA was further assessed by surface plasmon resonance"}, "YbaA": {"target": "T2, YbaA (Escherichia coli, UniProt P0AAQ6)", "T2 construct": "C-terminal His10 tag; purified by IMAC and size exclusion chromatography; printed peptide IVECWASDVPDGKVTDFR", "T2 sequence (P0AAQ6 1-117)": "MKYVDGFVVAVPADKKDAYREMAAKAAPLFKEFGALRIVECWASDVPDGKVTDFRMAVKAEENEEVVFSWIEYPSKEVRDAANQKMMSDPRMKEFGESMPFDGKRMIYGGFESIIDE", "assay": "surface plasmon resonance", "assay_type": "binding", "excerpt": "surface plasmon resonance on YbaA | Direct binding of CFX to YjdN or YbaA was further assessed by surface plasmon resonance"}}, "data": [{"smiles": "O=C(O)c1cn(C2CC2)c2cc(N3CCNCC3)c(F)cc2c1=O", "note": "[compound 1, Ciprofloxacin]", "values": [{"measurement": "Kd", "setting": "YjdN", "value": "1400 ± 620", "unit": "nM"}, {"measurement": "Kd", "setting": "YbaA", "value": "1000 ± 340", "unit": "nM"}]}]}
